These are literature values, as cited in patent publication US20250049743A1, “METHOD OF PRODUCING AN ORAL OSMOTIC PHARMACEUTICAL DELIVERY SYSTEM AND A PHARMACEUTICAL BATCH PRODUCED USING THE SAME” (United Therapeutics Corporation, priority 2023, published 2025).

The conditions of the series: treprostinil as the free acid.

As for `CCCCC[C@H](O)CC[C@@H]1[C@H]2Cc3cccc(OCC(=O)O)c3C[C@H]2C[C@H]1O` [treprostinil], the absolute oral bioavailability result is “less than 10%”.
